In brackets after ≈: the same amount, converted by molar mass. A value given as a limit tells only on which side of the number the result lay.

Data set [1] has as its system Streptococcus faecalis ATCC 10541. In words: Antibacterial activity, minimum growth inhibitory concentration by agar dilution method (SF). Format: cell-based. Conditions: Enterococcus faecalis, ATCC10541, pH 7, read-out: MIC, Streptococcus faecalis (SF). On the procedure: (§1) The various compounds of formula (I) of Examples 1-26 were tested for antibacterial activity against 6 microorganisms. […]. In this table, the following symbols are used:
SF: Streptococcus faecalis ATCC 10541
(In general: Agar dilution tests growth on a series of plates holding different concentrations.)

Data set [2] deals with Staphylococcus aureus ATCC 6538P. In words: Antibacterial activity, minimum growth inhibitory concentration by agar dilution method (SA). Format: cell-based. Conditions: ATCC6538P, pH 7, read-out: MIC, Staphylococcus aureus (SA). On the procedure: as §1
SA: Staphylococcus aureus ATCC 6538P

A further data set relates to Bacillus subtilis 10707. The data set is described as follows: Antibacterial activity, minimum growth inhibitory concentration by agar dilution method (BS). It is filed as cell-based. Conditions: Bacillus subtilis, 10707, pH 7, read-out: MIC, Bacillus subtilis (BS). On the procedure:
as §1
BS: Bacillus subtilis 10707

In data set [3] the test system is Proteus vulgaris ATCC 6897. The data set is described as follows: Antibacterial activity, minimum growth inhibitory concentration by agar dilution method (PV). Format: cell-based. Conditions: ATCC6897, pH 7, read-out: MIC, Proteus vulgaris (PV). On the procedure:
as §1
PV: Proteus vulgaris ATCC 6897

In data set [4] the test system is Shigella sonnei ATCC 9290. The data set is described as follows: Antibacterial activity, minimum growth inhibitory concentration by agar dilution method (SS). It is filed as cell-based. Conditions: ATCC9290, pH 7, read-out: MIC, Shigella sonnei (SS). The protocol: as §1
SS: Shigella sonnei ATCC 9290

For data set [5], the system named is Klebsiella pneumoniae ATCC 10031. The data set is described as follows: microbe, parasite or virus in culture. It is filed as cell-based. Conditions: ATCC10031, pH 7, read-out: MIC, Klebsiella pneumoniae (KP). The text has this:
In this table, the following symbols are used:
KP: Klebsiella pneumoniae ATCC 10031

Data set [6] in a line: Acute toxicity in mice (LD50, Behrens Kerber's method). Conditions: mouse, in vivo, ip; ddy mice, single intraperitoneal administration, 14 days observation. The protocol:
(§2) The antitumour-activity and toxicity of various compounds of formula (I) were investigated as indicated below.
Each animal of the test group consisting of 5 ddy mice was administered intraperitoneally once with a test compound. […] The LD50 was determined by Behrens Kerber's method.

In a further data set the test system is Sarcoma 180 solid tumour. The data set is described as follows: Anti-tumour activity against Sarcoma 180 solid tumour in mice. Conditions: Mus musculus, sc, 168 h; Sarcoma 180 s.c. in ddy mice; into tail vein 24 hours after implantation; volume at 7 days; read-out: ED50 (dose reducing tumour volume to 50% of control). It is filed as in vivo. The protocol:
as §2
(1) Effect against Sarcoma 180 solid tumour cells
5×10^6 cells of Sarcoma 180 solid tumour were intraperitoneally implanted into ddy mice. 7 days later, ascites cells were sampled. The cells were washed once with a sterilized physiological solution of sodium chloride and were used to prepare a cell suspension containing 5×10^7 cells per ml. On each occasion, 0.1 ml of the cell suspension was subcutaneously implanted into the right arm pit of a male mouse (ddy strain; body weight 20±2 g). The test compound was dissolved in a physiological solution of sodium chloride with or without addition of Tween 80 and was administered into the tail vein of each mouse of a group consisting of 5 mice at a dose of 0.1-0.2 ml, 24 hours after the implantation of the tumour cells.
The anti-tumour activity was determined in the following manner. 7 days after the implantation, the major axis (a) and the minor axis (b) of the tumour were measured to calculate a value of "a×b^2 /2" which corresponds to the volume of the tumour. The anti-tumour activity was expressed by the ratio of the volume of the tumours (T) of the group of animals administered with the test compound to the corresponding volume of tumours (c) of the untreated animals.
(2) Determination of ED50
(The amount needed for reducing the volume of Sarcoma 180 solid tumours in mice to 50% on the basis of the corresponding volume of Sarcoma solid tumours in control untreated animals). On graph paper, T/C (the ratio of the volume of tumours of treated and control animals) was indicated by an arithmetic scale on the longitudinal axis and the administered amount of the test compound was indicated by a logarithmic scale on the lateral axis.
The relationship between the dose and T/C was shown by a straight line determined by the method of least squares, from which a dose corresponding to T/C of 0.5 was obtained.

The subject of a further data set is peripheral leucocytes. In words: Effect on the peripheral leucocytes number in Sarcoma 180 bearing mice. It is filed as in vivo. Conditions: Sarcoma 180 bearing ddy mice; intraperitoneal 24 hours after implantation; blood 4 days later. On the procedure: as §2
(4) Effect on the peripheral leucocytes number
Sarcoma 180 solid tumour cells (5×10^6) were subcutaneously implanted into the right arm pit of each mouse (body weight 20±2 g) of a group consisting of 5 male mice (ddy strain). 24 hours after implantation, a test compound was intraperitoneally administered to each animal. 4 days later, blood (each 0.02 ml) was collected from the suborbital plexus vein of each tumour-carrying animal. The collected sample of the blood was dispersed in 9.98 ml of Cell-Kit Seven solution. One drop of saponin solution was added to the sample to dissolve erythrocytes, and then a microcell counter was used to measure the number of leucocytes. On a graph paper, the number of leucocytes was indicated on the y-axis by an arithmetic scale and the dose of the test compound was indicated on the x-axis by a logarithmic scale. The relationship between the number of peripheral leucocytes and the dosage of the test compound was plotted and the dosage corresponding to 4000 peripheral leucocytes/mm^3 (about 1/2 the number of leucocytes of normal mice) was obtained. This value is denoted in Table 5 by WBC4000.

A short description of data set [7]: Solubility in 0.03M phosphate buffered solution. It is filed as physicochemical. Conditions: 0.03m phosphate buffer, aqueous buffer, pH 7.0, 23° C. The protocol:
The solubilities of Compound 5, Compound 14 and Compound 20 in 0.03M phosphate buffered solution (pH 7.0, 23° C.) were determined.

Data set [8] is described as follows: Stability of the product as observed on isolation. It is filed as physicochemical. Conditions: in words; yield not constant. The protocol: To this solution is added dropwise 1 ml of methanol containing 23 mg of L-cysteine methyl ester hydrochloride and 50 μl of triethylamine. About 2 minutes later, the solvent is removed from the mixture by distillation under reduced pressure. Then, a similar treatment to that described in Example 1 is effected to obtain a small amount of Compound 16 as a grayish green powder. The yield of the resultant compound is not constant because of its unstability.
The yield is not constant because of unstability of the product.

With `CO[C@@]12[C@H](COC(N)=O)C3=C(C(=O)C(C)=C(NCCSSC[C@H](N)C(=O)O)C3=O)N1C[C@@H]1N[C@@H]12` [Compound 14, 7-N-[2-[(L-Cystein-S-yl)thio]ethyl]mitomycin C], the MIC in data set [1] was 0.31 µg/mL (≈ 0.604 µM); in [2], 0.31 µg/mL (≈ 0.604 µM); with Bacillus subtilis 10707 it was 0.16 µg/mL (≈ 0.312 µM); in [3], 5 µg/mL (≈ 9.74 µM); in [4], above 20 µg/mL; in [5], 0.63 µg/mL (≈ 1.23 µM). The same compound came in with an LD50 at 336 h in data set [6] of 30 mg/kg. For the same compound, the ED50 in the data set on Sarcoma 180 solid tumour stood at 15.4 mg/kg. For the same compound, the “WBC4000 (dosage corresponding to 4000 peripheral leucocytes/mm^3)” value (from here on “WBC4000”) in the data set on peripheral leucocytes is on record as 26.9 mg/kg. In data set [7], this compound came in with a solubility above 100 mg/mL.
With `CO[C@@]12[C@H](COC(N)=O)C3=C(C(=O)C(C)=C(NCCSSc4ccc(NC(C)=O)cc4)C3=O)N1C[C@@H]1N[C@@H]12` [Compound 5, 7-N-[2-(4-Acetamidophenyldithio)ethyl]mitomycin C], the MIC in data set [1] is 0.04 µg/mL (≈ 0.0715 µM); in data set [2], 0.02 µg/mL (≈ 0.0357 µM); with Bacillus subtilis 10707, 0.005 µg/mL (≈ 0.00893 µM); in [3], 5 µg/mL (≈ 8.93 µM); in [4], above 40 µg/mL; in [5], 0.16 µg/mL (≈ 0.286 µM). The compound also came in with an LD50 at 336 h in data set [6] of 30 mg/kg. Also, in the data set on Sarcoma 180 solid tumour, the ED50 was determined as 8.5 mg/kg. In addition, the “WBC4000” value with peripheral leucocytes is given as 14.2 mg/kg. Also, the solubility in [7] is 0.052 mg/mL (≈ 92.9 µM).
For `CO[C@@]12[C@H](COC(N)=O)C3=C(C(=O)C(C)=C(NCCSSC[C@H](N)C(=O)NCC(=O)O)C3=O)N1C[C@@H]1N[C@@H]12` [Compound 20, 7-N-[2-[(Glycino-L-cystein-S-71)thio]ethyl]mitomycin C], the MIC came to 0.63 µg/mL (≈ 1.1 µM) in data set [1]; 0.31 µg/mL (≈ 0.543 µM) in data set [2]; 0.08 µg/mL (≈ 0.14 µM) in the data set on Bacillus subtilis 10707; 5 µg/mL (≈ 8.76 µM) in data set [3]; 0.63 µg/mL (≈ 1.1 µM) in [5]. In data set [6], the LD50 at 336 h stood at 27 mg/kg. Also, the ED50 with Sarcoma 180 solid tumour stood at 9.6 mg/kg. In the data set with peripheral leucocytes, the “WBC4000” value is given as 20.5 mg/kg. This compound returned a solubility in [7] above 100 mg/mL.
In the case of `COC(=O)[C@@H](N)CSSCCNC1=C(C)C(=O)C2=C(C1=O)[C@@H](COC(N)=O)[C@@]1(OC)[C@H]3N[C@H]3CN21` [Compound 16, 7-N-[2-[(L-1-Methoxycarbonylcysteamin-S-yl)thio]ethyl]mitomycin C], the MIC in data set [1] was 0.39 µg/mL (≈ 0.739 µM); in [2], 0.2 µg/mL (≈ 0.379 µM); in the data set with Bacillus subtilis 10707, below 0.02 µg/mL; in data set [3], 1.6 µg/mL (≈ 3.03 µM); in data set [4], 50 µg/mL (≈ 94.8 µM); in [5] it was 0.2 µg/mL (≈ 0.379 µM). Besides, the “stability of the resultant compound” value in [8] is “unstability”.
Turning to `CO[C@@]12[C@H](COC(N)=O)C3=C(C(=O)C(C)=C(NCCSSC(C)(C)[C@H](N)C(=O)O)C3=O)N1C[C@@H]1N[C@@H]12` [Compound 18, 7-N-[2-[(L-Pencillamin-S-yl)thio]ethyl]mitomycin C], the MIC was 0.63 µg/mL (≈ 1.16 µM) in [1]; 0.31 µg/mL (≈ 0.572 µM) in data set [2]; 0.08 µg/mL (≈ 0.148 µM) in the data set with Bacillus subtilis 10707; 0.31 µg/mL (≈ 0.572 µM) in data set [3]; above 20 µg/mL in data set [4]; 0.08 µg/mL (≈ 0.148 µM) in data set [5]. In [6], this compound returned an LD50 at 336 h of 30 mg/kg. Also, the ED50 with Sarcoma 180 solid tumour was 9.9 mg/kg. Further, in the data set on peripheral leucocytes, the “WBC4000” value was found to be 18.8 mg/kg.
Consider `CO[C@@]12[C@H](COC(N)=O)C3=C(C(=O)C(C)=C(NCCSSc4cccc(N)c4)C3=O)N1C[C@@H]1N[C@@H]12` [Compound 3, 7-N-[2-(3-aminophenyldithio)ethyl]mitomycin C], for which the MIC in [1] was 0.04 µg/mL (≈ 0.0773 µM); in [2], 0.08 µg/mL (≈ 0.155 µM); with Bacillus subtilis 10707 it was below 0.01 µg/mL; in data set [3], 5 µg/mL (≈ 9.66 µM); in [4] it was 20 µg/mL (≈ 38.6 µM); in data set [5], 0.63 µg/mL (≈ 1.22 µM). The compound further registered an LD50 at 336 h in data set [6] of 7.5 mg/kg. Besides, the ED50 with Sarcoma 180 solid tumour is 5 mg/kg. In the data set with peripheral leucocytes, the “WBC4000” value is on record as above 10 mg/kg.
`CCOC(=O)[C@@H](N)CSSCCNC1=C(C)C(=O)C2=C(C1=O)[C@@H](COC(N)=O)[C@@]1(OC)[C@H]3N[C@H]3CN21` [Compound 17]: the MIC in [1] is 0.2 µg/mL (≈ 0.369 µM); in data set [2], 0.2 µg/mL (≈ 0.369 µM); in the data set with Bacillus subtilis 10707 it was below 0.02 µg/mL; in data set [3] it was 1.6 µg/mL (≈ 2.95 µM); in data set [4], 25 µg/mL (≈ 46.2 µM); in [5], 0.2 µg/mL (≈ 0.369 µM). In addition, in data set [8], the “stability of the resultant compound” value is recorded as “unstability”.

Broadly, the LD50 is the dose at which mortality reaches 50%. In general, ED50 refers to the midpoint of the dose-response relation. One may read the solubility as how much of the substance goes into solution per volume. A higher solubility goes with a readily soluble substance.

Source of the values: patent US4691024A, “New mitomycin derivatives, preparation thereof and pharmaceutical compositions containing them” (priority 1984, dated 1987).
